# Experimental data as given in paper PMC9409145, “(-)-Epicatechin Is a Biased Ligand of Apelin Receptor” (International Journal of Molecular Sciences, 2022).
# Experiments:
# [1] = molecular target: T1, apelin receptor (APLNR; APJ), PathHunter eXpress (Homo sapiens, UniProt P35414); test: beta-arrestin-2 recruitment, enzyme complementation chemiluminescence; assay type: cell-based; conditions: antagonist; cells pre-incubated with ML221, then EC as agonist
# T1 construct: full-length receptor with C-terminal ProLink (beta-galactosidase fragment) tag, stably expressed in CHO-K1 with enzyme-acceptor-tagged beta-arrestin-2
# T1 sequence (P35414 1-380): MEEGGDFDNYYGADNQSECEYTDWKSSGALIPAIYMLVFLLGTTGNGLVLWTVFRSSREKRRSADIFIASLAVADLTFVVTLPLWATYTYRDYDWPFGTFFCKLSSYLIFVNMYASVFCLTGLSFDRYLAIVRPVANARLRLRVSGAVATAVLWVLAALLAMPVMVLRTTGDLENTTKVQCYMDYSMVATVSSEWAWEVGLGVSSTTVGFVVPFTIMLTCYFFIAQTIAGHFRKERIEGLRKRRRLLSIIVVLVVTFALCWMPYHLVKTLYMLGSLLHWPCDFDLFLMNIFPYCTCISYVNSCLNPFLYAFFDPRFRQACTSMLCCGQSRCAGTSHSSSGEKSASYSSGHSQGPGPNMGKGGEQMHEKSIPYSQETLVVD
# [2] = molecular target: T2, apelin receptor (mouse skeletal muscle) (Mus musculus, UniProt Q9WV08); test: affinity chromatography on immobilised epicatechin, MS identification; assay type: binding; conditions: muscle homogenate, 4 °C overnight, PBS pH 7.4; acid elution (MES pH 4.5); immobilised ligand
# T2 construct: gene Aplnr
# T2 sequence (Q9WV08 1-377): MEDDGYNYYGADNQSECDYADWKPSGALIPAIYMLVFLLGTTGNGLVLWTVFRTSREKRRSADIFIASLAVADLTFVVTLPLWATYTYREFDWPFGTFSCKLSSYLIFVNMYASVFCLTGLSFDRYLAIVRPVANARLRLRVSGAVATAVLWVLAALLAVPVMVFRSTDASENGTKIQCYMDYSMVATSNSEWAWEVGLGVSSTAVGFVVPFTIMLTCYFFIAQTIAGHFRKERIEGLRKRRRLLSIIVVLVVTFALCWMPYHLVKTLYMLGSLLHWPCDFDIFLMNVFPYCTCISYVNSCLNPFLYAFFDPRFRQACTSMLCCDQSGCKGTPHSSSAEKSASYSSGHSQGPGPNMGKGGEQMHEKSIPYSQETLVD
# [3] = molecular target: T1, apelin receptor (APLNR; APJ), PathHunter eXpress; test: beta-arrestin-2 recruitment, enzyme complementation chemiluminescence, specific binding with Hill slope fit; assay type: cell-based; conditions: agonist; apparent constant from functional response, not a radioligand; 1 h incubation; CHO-K1 cells; read-out: Kd
# From the text: beta-arrestin-2 recruitment, enzyme complementation chemiluminescence, specific binding with Hill slope fit on apelin receptor (APLNR; APJ), PathHunter eXpress
EC50 [3] [pM],Structure (SMILES),"beta-arrestin-2 recruitment, enzyme complementation chemiluminescence [1]","affinity chromatography on immobilised epicatechin, MS identification [2]"
,"O=C(Oc1coc(CSc2ncccn2)cc1=O)c1ccc([N+](=O)[O-])cc1 [ML221, 5-[(4-Nitrobenzoyl)oxy]-2-[(2-pyrimidinylthio)methyl]-4H-pyran-4-one]",the interaction of the antagonist with the receptor and the blockage of the effect of EC,
1.76,"Oc1cc(O)c2c(c1)O[C@H](c1ccc(O)c(O)c1)[C@H](O)C2 [EC, (-)-epicatechin]",,Five proteins were identified as receptors: apelin receptor
